Measured values as given in the supplement of paper PMC10307832.

How the values were obtained:
Assay in all cases: relative viability (nuclei count vs DMSO), 5 days (fraction); higher = more cells survive
Seliciclib + Trametinib = compound: CC[C@H](CO)Nc1nc(NCc2ccccc2)c2ncn(C(C)C)c2n1 [Seliciclib] + CC(=O)Nc1cccc(-n2c(=O)n(C3CC3)c(=O)c3c(Nc4ccc(I)cc4F)n(C)c(=O)c(C)c32)c1 [Trametinib] (partner 0.02 µM)
In short: (§1)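 Lung cancer cell lines were seeded in 1536-well plates and dosed by pin tool the next day, with either a single drug or a fixed anchor-drug dose combined with five library-drug doses (not always all listed) spaced in √10 steps. Five days later, one step fixed the cells and stained their nuclei (final 0.05% Triton X-100, 1% formaldehyde, 1 ug/ml Hoechst), and nuclei were counted on 4× images. Relative viability is the nuclei count in treated wells divided by the count in vehicle wells, and each value is the median of duplicate plates.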

Seliciclib + Bortezomib = compound: CC[C@H](CO)Nc1nc(NCc2ccccc2)c2ncn(C(C)C)c2n1 [Seliciclib] + CC(C)C[C@H](NC(=O)[C@H](Cc1ccccc1)NC(=O)c1cnccn1)B(O)O [Bortezomib] (partner 0.002 µM)
In short: as §1

Seliciclib + Pictilisib = compound: CC[C@H](CO)Nc1nc(NCc2ccccc2)c2ncn(C(C)C)c2n1 [Seliciclib] + CS(=O)(=O)N1CCN(Cc2cc3nc(-c4cccc5[nH]ncc45)nc(N4CCOCC4)c3s2)CC1 [Pictilisib] (partner 1 µM)
In short: as §1

Seliciclib + Olaparib = compound: CC[C@H](CO)Nc1nc(NCc2ccccc2)c2ncn(C(C)C)c2n1 [Seliciclib] + O=C(c1cc(Cc2n[nH]c(=O)c3ccccc23)ccc1F)N1CCN(C(=O)C2CC2)CC1 [Olaparib] (partner 8 µM)
In short: as §1

| Cell Line | relative viability (Seliciclib + Trametinib; first compound 0.08 µM) | relative viability (Seliciclib + Trametinib; first compound 0.253 µM) | relative viability (Seliciclib + Trametinib; first compound 0.8 µM) | relative viability (Seliciclib + Trametinib; first compound 2.53 µM) | relative viability (Seliciclib + Trametinib; first compound 8 µM) | relative viability (Seliciclib + Bortezomib; first compound 0.08 µM) | relative viability (Seliciclib + Bortezomib; first compound 0.253 µM) | relative viability (Seliciclib + Bortezomib; first compound 0.8 µM) | relative viability (Seliciclib + Bortezomib; first compound 2.53 µM) | relative viability (Seliciclib + Bortezomib; first compound 8 µM) | relative viability (Seliciclib + Pictilisib; first compound 0.08 µM) | relative viability (Seliciclib + Pictilisib; first compound 0.253 µM) | relative viability (Seliciclib + Pictilisib; first compound 0.8 µM) | relative viability (Seliciclib + Pictilisib; first compound 2.53 µM) | relative viability (Seliciclib + Pictilisib; first compound 8 µM) | relative viability (Seliciclib + Olaparib; first compound 0.08 µM) | relative viability (Seliciclib + Olaparib; first compound 0.253 µM) | relative viability (Seliciclib + Olaparib; first compound 0.8 µM) | relative viability (Seliciclib + Olaparib; first compound 2.53 µM) | relative viability (Seliciclib + Olaparib; first compound 8 µM) |
| --- | --- | --- | --- | --- | --- | --- | --- | --- | --- | --- | --- | --- | --- | --- | --- | --- | --- | --- | --- | --- |
| NCI-H1650 | 0.572 | 0.69 | 0.471 | 0.433 | 0.422 | 0.214 | 0.217 | 0.2 | 0.21 | 0.178 | 0.579 | 0.631 | 0.526 | 0.466 | 0.354 | 0.576 | 0.804 | 0.754 | 0.666 | 0.756 |
| NCI-H1651 | 0.732 | 0.783 | 0.796 | 0.793 | 0.796 | 1 | 0.925 | 0.897 | 0.836 | 0.947 | 0.484 | 0.636 | 0.563 | 0.45 | 0.487 | 0.195 | 0.182 | 0.201 | 0.188 | 0.169 |
| NCI-H1666 | 0.829 | 0.761 | 0.792 | 0.849 | 0.75 | 0.799 | 0.739 | 0.809 | 0.66 | 0.568 | 0.33 | 0.526 | 0.478 | 0.353 | 0.439 | 0.737 | 0.82 | 0.725 | 0.752 | 0.604 |
| NCI-H1734 | 0.717 | 0.528 | 0.677 | 0.664 | 0.572 | 0.873 | 0.833 | 0.882 | 1.08 | 0.824 | 0.452 | 0.477 | 0.385 | 0.379 | 0.41 | 0.58 | 0.513 | 0.595 | 0.536 | 0.521 |
| NCI-H1755 | 0.804 | 0.658 | 0.757 | 0.776 | 0.71 | 0.928 | 0.961 | 0.896 | 0.973 | 0.913 | 0.414 | 0.504 | 0.389 | 0.339 | 0.386 | 0.882 | 0.914 | 0.873 | 0.885 | 0.846 |
| NCI-H1792 | 0.353 | 0.329 | 0.408 | – | 0.372 | 1.03 | 0.96 | 0.898 | 0.904 | 0.884 | 0.233 | 0.313 | 0.273 | 0.285 | 0.274 | 0.338 | 0.341 | 0.399 | – | 0.322 |
| NCI-H1915 | 0.315 | 0.277 | 0.307 | 0.292 | 0.288 | 0.961 | 1.05 | 0.951 | 0.987 | 0.743 | 0.918 | 1.05 | 0.824 | 0.839 | 0.803 | 0.27 | 0.287 | 0.273 | 0.227 | 0.196 |
| NCI-H1975 | 0.383 | 0.215 | 0.439 | 0.266 | 0.334 | 0.372 | 0.348 | 0.345 | 0.322 | 0.218 | 0.296 | 0.298 | 0.352 | 0.214 | 0.271 | 0.774 | 0.605 | 0.768 | 0.865 | 0.523 |
| NCI-H1993 | 0.649 | 0.543 | 0.47 | 0.508 | 0.43 | 1.12 | 0.878 | 0.936 | 0.784 | 0.924 | 0.816 | 0.703 | 0.847 | 0.777 | 0.847 | 0.892 | 0.935 | 1.05 | 0.976 | 1.01 |
| NCI-H2009 | 0.278 | 0.208 | 0.264 | 0.262 | 0.296 | 1.05 | 1.21 | 0.908 | 0.911 | 0.941 | 0.77 | 1.11 | 0.584 | 0.762 | 0.699 | 0.734 | 0.576 | 0.724 | 0.64 | 0.706 |
| NCI-H2023 | 0.542 | 0.457 | 0.501 | 0.447 | 0.264 | 0.998 | 1.1 | 1.1 | 0.747 | 0.84 | 0.227 | 0.224 | 0.232 | 0.164 | 0.182 | 0.517 | 0.472 | 0.449 | 0.536 | 0.366 |
| NCI-H2085 | 0.509 | 0.475 | 0.513 | 0.41 | 0.343 | 0.759 | 1.09 | 1.1 | 1.03 | 0.841 | 0.504 | 0.533 | 0.394 | 0.493 | 0.425 | 0.734 | 0.845 | 0.73 | 0.738 | 0.63 |
| NCI-H2087 | 0.202 | 0.203 | 0.217 | 0.145 | 0.196 | 0.73 | 0.792 | 0.719 | 0.752 | 0.661 | 1.03 | 1.12 | 0.508 | 0.813 | 0.832 | 0.597 | 0.616 | 0.38 | 0.577 | 0.514 |
| NCI-H2126 | 0.581 | 0.54 | 0.623 | 0.525 | 0.449 | 1.12 | 1.14 | 1.07 | 0.957 | 1.04 | 0.507 | 0.548 | 0.456 | 0.423 | 0.467 | 0.886 | 0.953 | 0.888 | 0.908 | 0.745 |
| NCI-H2228 | 0.504 | 0.204 | 0.498 | 0.497 | 0.528 | 1.05 | 0.943 | 0.954 | 0.978 | 0.713 | 0.372 | 0.333 | 0.234 | 0.457 | 0.339 | 0.905 | 0.649 | 0.741 | 0.577 | 0.654 |
| NCI-H2347 | 0.259 | 0.323 | 0.331 | 0.278 | 0.279 | 1.22 | 0.927 | 0.908 | – | 0.847 | 0.645 | 0.6 | 0.321 | 0.829 | 0.448 | 0.557 | 0.604 | 0.518 | 0.579 | 0.557 |
